# Reference: patent US20240115545A1, “PHARMACEUTICAL COMPOSITION CONTAINING B-LAPACHONE AS ACTIVE INGREDIENT FOR PREVENTION OR TREATMENT OF CHOLESTATIC LIVER DISEASE” (CUROME BIOSCIENCES CO., LTD., priority 2020, published 2024)
# Columns and labels:
# [1] = test system: fibrosis-related genes; assay: Real-time PCR of fibrosis-related genes in liver tissue, preventive β-lapachone in DDC mice (Example 2.3); format: in vivo; conditions: DDC-BL40 and DDC-BL80 vs DDC-vehicle, DDC 14 days
# Description: DDC-induced cholestatic liver disease mouse animal models were prepared according to the method of Elisa Pose et al. by using 8-week-old C57BL/6 male mice (Samtako, Korea). Briefly, cholestatic liver disease was induced by feeding a standard rodent diet supplemented with 0.1% (w/w) DDC for 7 or 14 days. The 12-hour light and dark cycle was maintained and animals were allowed to free access to water. The standard rodent diet included medium wheat, wheat, corn, and corn gluten flour, and soybean oil (14% protein). All animal related procedures were reviewed and approved by the Institutional Animal Care and Use Committee of Korea Research Institute of Bioscience and Biotechnology (KRIBB), KRIBB-AEC-20165). To investigate the preventive effect of β-Lapachone (BL) on cholestatic liver disease, the mice were fed a diet with 0 (DDC-vehicle), 40 mg/kg (DDC-BL40) and 80 mg/kg (DDC-BL80) 3 days before DDC treatment (total 17 days) and, after 3 days, were fed a diet with DDC (total 14 days). After 14 days of DDC treatment, the mice were sacrificed and the liver was harvested including the portal vein (PV) and bile ducts of the mice, and the surrounding lesions were confirmed by H&E, and are shown in FIG. 1. The expression of the factors in the liver tissue obtained from the cholestatic liver disease mouse animal models of Example 2.1 was performed by a real-time polymerase chain reaction was performed according to the following procedure. Total RNA from liver samples was extracted using Tri-RNA Reagent (Favrogen BIOTECH CORP, Nong-Ke Rd, Taiwan) according to the procedure presented by Favrogen, and was reverse transcribed into cDNA by using PrimeScript™ RT reagent Kit with gDNA Eraser (TAKARA Korea Biomedical Inc, Seoul, 08506, Korea). Quantitative PCR was performed using TB Green™ Premix Ex Taq™ II (Tli RNaseH Plus), ROX plus (TAKARA Korea Biomedical Inc, Seoul, 08506, Korea) and QuantStudio 5 Real-Time PCR Instrument (Thermo Fisher Scientific, Waltham, MA, USA).
# [2] = test system: inflammatory cytokine factors in the colon tissue; assay: mRNA levels of inflammatory cytokine factors in colon tissue of DSS mice (Example 6.2); format: in vivo; conditions: DSS + β-lapachone 80 mg/kg
# Description: After 8-week-old C57BL/6 female mice (Samtako, Korea) were divided into each group (=10), each experimental group was fed a standard rodent diet supplemented with 3% (w/w) DSS in drinking water for the first 5 days to induce acute colitis and orally administered control (vehicle), β-lapachone 40 mg/kg, and β-lapachone 80 mg/kg for 14 days.
# By the same method as in Example 6.1, experimental groups were divided into a DSS untreated group (Control), a DSS treated group, and a DSS+β-lapachone 80 mg/kg treated group, respectively, and treated. After the end of the experiment, the mice were sacrificed to remove the colon, and the accurate colon length was measured using a Vernier caliper, and is shown FIGS. 11A and 11B. In addition, the mRNA levels of genes of interleukin-1beta (IL-1β), interleukin-6 (IL-6), interleukin-18 (IL-18), interferon-γ (INF-γ), tumor necrosis factor-α (TNF-α), tumor necrosis factor-β (TNF-β), and monocyte chemoattractant protein-1 (MCP-1), which were inflammatory cytokine factors in the colon tissue, were analyzed by a real-time polymerase chain reaction through a conventional experiment procedure, and are shown in FIG. 12.
# [3] = test system: peripheral blood mononuclear cells (PBMCs); assay: IL-1β and IL-18 expression in LPS and ATP treated peripheral blood mononuclear cells; format: cell-based, mice; conditions: LPS 200 ng/mL and ATP, 0.5, 1, 2 μM β-lapachone, 4 hours
# Description: Considering that inflammatory cytokines mediate the pathogenic mechanism of cholestatic liver disease, the peripheral blood mononuclear cell model was used by a modified method of Boyum et al. (1968). Peripheral blood mononuclear cells isolated from healthy 8-week-old C57BL/6 male mice (Samtako, Korea) were maintained by primary culture in RPMI-1640 medium containing 10% FBS, 2 mM glutamine, 100 U penicillin, and 0.1 mg/ml streptomycin. Stable peripheral blood mononuclear cells (PBMCs) were treated with LPS at 200 ng/mL and ATP and β-lapachone at 0, 0.5, 1, 2 μM in the medium and, after 4 hours, the expression levels of IL-1β and IL-18 were investigated, and the results are shown in FIG. 15.
# [4] = test system: macrophage line Raw264.7; assay: IL-1β and TNF-α release (ELISA) from LPS and ATP treated Raw264.7 macrophages; format: cell-based; conditions: Raw264.7, LPS 100 ng/ml, 0.2, 0.5, 1, 2 μM β-lapachone 24 hours, ATP 2.5 mM 30 minutes
# Description: The macrophage line Raw264.7 (ATCC TIB-71, Manassas, VA, USA) was subcultured in DMEM supplemented with 10% FBS and 1% penicillin/streptomycin.
# For inflammation induction, RAW264.7 cells were suspended in DMEM containing 2% FBS, inoculated in a 12-well plate to a cell number of 4×10^5/ml, and incubated in 5% CO2 incubator at 37° C. for 24 hours. With replacement with fresh media, the cells were treated with appropriate concentrations of a corresponding substance, LPS (100 ng/ml), and 0.2, 0.5, 1, and 2 μM β-lapachone, cultured for 24 hours, treated with ATP (2.5 mM), and then cultured for additional 30 minutes, and the supernatant was collected. The release of cytokines (IL-1β and TNF-α) of RaW264.7 macrophages was quantified using each cell-free supernatant-ELISA set (Invitrogen, Billerica, MA, USA) by Invitrogen according to the manufacture's instruction, and is shown in FIG. 14.
compound,measurement,setting,value
CC1(C)CCC2=C(O1)c1ccccc1C(=O)C2=O [β-lapachone],transcriptional level of Co|1α1 in liver,[1],significantly reduced
same,transcriptional level of Co|4α1 in liver,[1],significantly reduced
same,transcriptional level of TGF-β1 in liver,[1],significantly reduced
same,transcriptional level of fibronectin in liver,[1],significantly reduced
same,transcriptional level of α-SMA in liver,[1],significantly reduced
same,mRNA level of IL-1β in colon tissue,[2],significantly reduced
same,mRNA level of IL-6 in colon tissue,[2],significantly reduced
same,mRNA level of IL-18 in colon tissue,[2],significantly reduced
same,mRNA level of INF-γ in colon tissue,[2],significantly reduced
same,mRNA level of MCP-1 in colon tissue,[2],significantly reduced
same,mRNA level of TNF-α in colon tissue,[2],significantly reduced
same,mRNA level of TNF-β in colon tissue,[2],significantly reduced
same,expression level of IL-1β increased by LPS and ATP,[3],reduced depending on the concentration
same,expression level of IL-18 increased by LPS and ATP,[3],reduced depending on the concentration
same,expression level of IL-1β protein increased by LPS and ATP,[4],reduced depending on the concentration
same,expression level of TNF-α protein increased by LPS and ATP,[4],reduced depending on the concentration
